As usually defined, the LD50 is the dose at which mortality reaches 50%. As usually defined, the pA2 is the negative logarithm of the molar antagonist concentration that doubles the agonist concentration needed for the same response. The term ED50 denotes the midpoint of the dose-response relation. As usually defined, the inhibition is the share of the control response that was lost under treatment.

Counter-ions that a name gives are not always drawn.

Series [1] in a line: Toxicity, oral administration to mice. The class given is in vivo. Particulars: mouse, in vivo, oral route, confidence interval in parentheses.
Series [2] concerns mice. The series is described as follows: Toxicity, oral administration to mice. The class given is in vivo. Particulars: oral dose of 300 mg/kg.
A short description of series [3]: Toxicity, intravenous administration to mice. Type of series: in vivo. Particulars: mouse, in vivo, intravenous route.
The test system of series [4] is Alpha-1. In words: Alpha-1 blocking activity in vitro: antagonism of norepinephrine-induced contractions of isolated rabbit aorta strips. Particulars: norepinephrine 2.10^-6 mol/1.
The subject of series [5] is Alpha-1. In words: Type of antagonism vis-a-vis norepinephrine on isolated rabbit aorta strips (cumulative curve method, Van Rossum, in presence of cocaine). Particulars: 30 minutes interval. The protocol:
Alpha-1 Blocking Activity: Alpha-1 blocking activity is evaluated in vitro by determination of the antagonism of contractions induced in isolated rabbit aorta strips by norepinephrine used in a concentration of 2.10^-6 mol/1 according to a technique derived from that described by Furchgott and Bhadrakom (J. Pharmacol. 108:129-43, 1953). The IC50 (concentration inhibiting 50% of the contractions) as well as the interval between introduction of the test product and of the […] into the bath, which corresponds to the maximum activity, are presented below for the derivatives according to the present invention: COR 2831, 90 min, 1.10·10^-7 (9.26·10^-8 -1.31·10^-7)mol/1; COR 2837, 30 min, 1.64·10^-6 (1.44·10^-6 -1.85·10^-6) mol/1; COR 2841, 60 min, 1.16·10^-6(9.24·10^-7 -1.46·10^-6) mol/1; COR 2843, 60 min, 9.82·10^ -7 (7.67·10^-7 -1.26·10^-6) mol/1; COR 2838, 60 min, 2.53·10^-6(2.15·10^-6 -2.98·10^-6 mol/1. The type of antagonism that COR 2831 exerts vis-a-vis norepinephrine was determined on the same type of preparation for an interval of 30 minutes, using the cumulative curve method according to Van Rossum in the presence of cocaine.

The subject of series [6] is phenylephrine-induced hypertension. The series is described as follows: Alpha-blocking activity in vivo: antagonism of phenylephrine-induced hypertension in rats with spinal cord removal and bivagotomy. Particulars: intravenous; for ED50 / inhibition in vivo at 3 µmol/kg: Rattus norvegicus; for inhibition in vivo at 3 µmol/kg: read-out: maximum activity (antagonism of phenylephrine-induced hypertension). The method, then:
(§1) Alpha-blocking activity was determined in vivo in mice with the test involving inhibition of mydriasis induced by norepinephrine. […] Thirty minutes later, 0.75 mg/kg norepinephrine was administered intravenously. […] In vivo alpha-blocking activity was also evaluated by determination of antagonism of phenylephrine-induced hypertension. The test products were administered by the intravenous route to rats that had undergone spinal cord removal and bivagotomy according to the technique by J. S. Gillespie and T. S. Muir (Br. J. Pharmac. Chemother. 30:78-87, 1967). The dosage, maximum activity, and the interval after which residual activity was equal to 50% of the maximum activity are presented below: […]

For series [7], the system named is spontaneously hypertensive rats. The series is described as follows: Antihypertensive activity, spontaneously hypertensive rats, oral, two days, sphygmomanometer. Particulars: 100 mg/kg/day for two days, one hour after gavage. The class given is in vivo. The method, then:
Antihypertensive Activity: The test products were administered orally to spontaneously hypertensive rats. Arterial pressure was measured indirectly with a sphygmomanometer.

For series [8], the system named is passive cutaneous anaphylaxis. In words: Passive cutaneous anaphylaxis test in rats. Type of series: in vivo. The protocol:
Antiallergy-Antihistamine Activity: In the passive cutaneous anaphylaxis test, COR 2833 and COR 2838 given to rats in an intravenous dose of 10 mg/kg produced 53 and 60% activity, respectively. Under the same conditions, COR 2831 produced 67% activity in an oral dose of 5 mg/kg.

Series [9] deals with isolated guinea pig ileum (histamine). The series is described as follows: Antihistamine activity in vitro: histamine-induced contractions of isolated guinea pig ileum. Particulars: histamine 5.10^-7 g/ml.
A further series concerns IgE. In words: Combined anaphylactic reaction (IgE) and cutaneous histamine reaction in the same rat: IgE reaction. The class given is in vivo, Sprague-Dawley rat. The method, then:
(§2) Antihistamine-antiallergy activity was also determined by combining an anaphylactic reaction (IgE) and a cutaneous histamine reaction in the same animal (Sprague-Dawley rat). Activity was evaluated by the quantity of Evans blue liberated at each reaction site as compared with control animals receiving the administration vehicle. COR 2831 produced the following ED50 values in this test: […]

In a further series the test system is histamine. The series is described as follows: Combined anaphylactic reaction (IgE) and cutaneous histamine reaction in the same rat: histamine reaction. Type of series: in vivo, Sprague-Dawley rat. The method, then: as §2
Series [10] has as its system isolated guinea pig ileum (serotonin). In words: Antiserotonin activity in vitro: serotonin-induced contractions of isolated guinea pig ileum. Particulars: 2.10^-6 g/ml; serotonin 10^-6 g/ml. An excerpt:
Antiserotonin Activity: In vitro, contractions induced in isolated guinea pig ileum by 10^-6 g/ml serotonin were inhibited by COR 2838 in a concentration of 4.10^-7 g/ml and COR 2831 and COR 2833 in a concentration of 2.10^-6 g/ml.

For series [11], the system named is mice. The series is described as follows: Toxicity, intraperitoneal administration to mice. Particulars: mice, intraperitoneal dose of 200 mg per kg.
A further series concerns glucose tolerance curve. The series is described as follows: Hypoglycemic activity: glucose tolerance curve after an excess of starch. Type of series: in vivo. Particulars: one hour after oral 100 mg/kg, excess of starch (2.5 g per kg). The protocol:
(§3) Hypoglycemic Activity: One hour after oral administration of a dose of 100 mg/kg, COR 2839 produced a 21% reduction in the glucose tolerance curve after an excess of starch (2.5 g per kg). One hour after oral administration of a dose of 100 mg per kg, COR 2839 brought about a decrease of 24% in the blook sugar of fasting mice subjected to an excess of glucose (1 g per kg) at the time that the test product was tiven.

The subject of another series is fasting mice. In words: Hypoglycemic activity: blood sugar of fasting mice subjected to an excess of glucose. Type of series: in vivo. Particulars: one hour after oral 100 mg per kg, excess of glucose (1 g per kg). The protocol: as §3
Another series has as its system platelet aggregation. The series is described as follows: Platelet anti-aggregation activity: sodium arachidonate-induced aggregation in rabbit plasma with a high platelet content. Type of series: cell-based. Particulars: Oryctolagus cuniculus, 50 mcg/ml sodium arachidonate; for inhibition at 5 µg/mL: 5 mcg/ml. An excerpt: In the presence of aspirin, this inhibition was 100% in a concentration of 2.5 mcg/ml COR 2860 and a concentration of 5 mcg/ml COR 2864. In the absence of aspirin, the inhibition was 100% with a concentration of 5 mcg/ml COR 2860 and 10 mcg/ml COR 2864.

The subject of series [12] is norepinephrine-induced mydriasis. In words: Alpha-blocking activity in vivo: inhibition of norepinephrine-induced mydriasis in mice. Particulars: 25 mg/kg, 0.75 mg/kg norepinephrine IV. The method, then:
as §1

On to `COc1ccccc1N1CCN(CCOc2cc(C)c(O)cc2C(C)C)CC1` [COR 2831, 5-Isopropyl-2-methyl-4-(2-methoxyphenylpiperazinyl)ethoxy)phenol hydrochloride], for which the figures for the median lethal dose (LD50) in [1] and in series [3] were 1130 mg/kg and 86 mg/kg, respectively. Further, the deaths result in the series with mice [2] and in the series with mice [11] was “no deaths” in each case. Moreover, the “interval between introduction of the test product and of the […] into the bath, which corresponds to the maximum activity” value in the series on Alpha-1 [4] was determined as 90 min. Besides, the pA2 in the series with Alpha-1 [5] (Arunlakshama and Schild method) is listed as 8.59±0.08. Also, in the series with Alpha-1 [5] (vis-a-vis norepinephrine), the type of antagonism result is reported as “competitive nature”. Besides, the ED50 stood at 0.0195 µmol/kg in series [6] (2 min, after 2 min); 0.304 µmol/kg in series [6] (0.5 h, after 30 min); 0.84 µmol/kg in [6] (1 h, after 60 min); 0.27 mg/kg with IgE (IV route); 14.4 mg/kg in the series on IgE (Oral route); 0.37 mg/kg in the series with histamine (IV route). Further, the ED50 in the series on histamine (Oral route) was 8 mg/kg. The inhibition in vivo at 3 µmol/kg in [6] (3.10^-6 M/kg) worked out at 129%. Besides, the “interval after which residual activity was equal to 50% of the maximum activity” value in [6] (3.10^-6 M/kg) was more than 2 h. Besides, the results for the maximum pressure reduction in series [7] (first day) and in series [7] (second day) were 26% and 21%, respectively. In addition, the “activity in the passive cutaneous anaphylaxis test” value in series [8] (oral, 5 mg/kg) was 67%. Further, the “inhibition of histamine-induced contractions” value in [9] (10^-5 g/ml) worked out at 80%. The “inhibition of serotonin-induced contractions” value in [10] was “inhibited”.
Turning to `COc1ccccc1N1CCN(CCN(C)CCOc2cc(C)c(O)cc2C(C)C)CC1` [COR 2833, 5-Isopropyl-2-methyl-4-((N-methyl N-2-((2-methoxyphenyl)piperazinylethyl)amino)ethoxyphenoldihydrochloride], the “activity in the passive cutaneous anaphylaxis test” value in series [8] (intravenous, 10 mg/kg) was found to be 53%. In series [9] (concentration of 2.10^-6), the “inhibition of histamine-induced contractions” value amounted to 80%. In addition, in series [10], the “inhibition of serotonin-induced contractions” value is “inhibited”.
With `Cc1cc(OCCN2CCN(c3ccccc3)CC2)c(C(C)C)cc1O` [COR 2837, 5-Isopropyl-2-methyl-4-phenylpiperazinylethoxyphenol hydrochloride], the deaths result in the series on mice [2] and in the series with mice [11] was “no deaths” each time. Besides, the inhibition in vivo at 3 µmol/kg in series [6] (3.10^-6 M/kg) was found to be 91.1%.
Regarding `Cc1cc(OCCN2CCN(c3cccc(C(F)(F)F)c3)CC2)c(C(C)C)cc1O` [COR 2839, 5-Isopropyl-2-methyl-4-(3-trifluoromethylphenyl) piperazinyl-ethoxy)phenol hydrochloride], in the series on glucose tolerance curve, the “reduction in the glucose tolerance curve” value amounted to 21%. The “decrease in the blood sugar” value in the series on fasting mice was 24%. Also, the deaths entry with mice [11] was “no deaths”.
For the compound `Cc1cc(OCCN2CCN(c3ccc(F)cc3)CC2)c(C(C)C)cc1O` [COR 2841, 5-Isopropyl-2-methyl-4-(p-fluorophenylpiperazinylethoxy)phenol hydrochloride], the deaths result with mice [2] is on record as “no deaths”. Besides, the inhibition in vivo at 3 µmol/kg in series [6] (3.10^-6 M/kg) was 39.8%.
With `Cc1cc(OCCN2CCN(c3cccc(Cl)c3)CC2)c(C(C)C)cc1O` [COR 2842, 5-Isopropyl-2-methyl-4-((3-chlorophenyl)piperazinylethoxy)phenol hydrochloride], the deaths entry in the series with mice [2] and in the series with mice [11] was “no deaths” each time. Besides, the inhibition in vivo at 3 µmol/kg in series [6] (3.10^-6 M/kg) turned out to be 35.1%.
As for `Cc1cc(OCCN2CCN(c3ccccc3C)CC2)c(C(C)C)cc1O` [COR 2843, 5-Isopropyl-2-methyl-4-(2-methylphenyl) piperazinylethoxy phenol hydrochloride], the deaths entry in the series with mice [2] and in the series with mice [11] was “no deaths” throughout. In addition, the inhibition in vivo at 3 µmol/kg in [6] (3.10^-6 M/kg) is 112%.
On to `COc1ccc(N2CCN(CCOc3cc(C)c(O)cc3C(C)C)CC2)cc1` [COR 2860, 5-Isopropyl-2-methyl-4-((4-methoxyphenylpiperazinyl)ethoxy)phenol dihydrochloride], for which the deaths result in the series on mice [2] and with mice [11] was “no deaths” throughout. Besides, in series [6] (3.10^-6 M/kg), the inhibition in vivo at 3 µmol/kg was found to be 39.7%. Besides, the inhibition at 2.5 µg/mL with platelet aggregation (2.5 mcg/ml, in the presence of aspirin (1 mcg/ml)) came out at 100%. Moreover, in the series on platelet aggregation (in the absence of aspirin), testing at 5 µg/mL gave an inhibition of 100%.
On to `Cc1cc(OCCN2CCN(c3cccc(C)c3C)CC2)c(C(C)C)cc1O` [COR 2861, 5-Isopropyl-2-methyl-4-((2,3-dimethylphenylpiperazinyl)ethoxyphenol hydrochloride], for which the deaths entry in the series on mice [2] and in the series on mice [11] was “no deaths” in each case. The inhibition in vivo at 3 µmol/kg in series [6] (3.10^-6 M/kg) was found to be 66.4%.
Take `Cc1cc(OCCN2CCN(c3ccccc3Cl)CC2)c(C(C)C)cc1O` [COR 2864, 5-Isopropyl-2-methyl-4-((2-chlorophenyl)piperazinylethoxy)phenol hydrochloride]: the deaths entry in the series with mice [2] and with mice [11] was “no deaths” each time. Moreover, in series [6] (3.10^-6 M/kg), the inhibition in vivo at 3 µmol/kg was found to be 98.6%. For the same compound, in the series on platelet aggregation (in the presence of aspirin (1 mcg/ml)), the inhibition at 5 µg/mL turned out to be 100%. In the series with platelet aggregation (10 mcg/ml, in the absence of aspirin), the inhibition at 10 µg/mL came out at 100%.
In [12], `CC(CCc1ccccc1)NCC(O)c1ccc(O)c(C(N)=O)c1` (stereo not shown) [labetalol, reference compound] registered an inhibition of mydriasis of 58%.

The record behind these values is patent publication US4721715A, “Derivatives of 4-(arylpiperazinyl-ethylaminoethoxy) phenol useful for effecting hypolipidemic therapy or cardiovascular therapy” (Societe Cortial, S.A., priority 1984, dated 1988).
